“Also recorded” adds a separate entry of the source.
Assays:
[1] = system: plasma TNF-alpha, CRP, IL-1beta, IL-6, IL-8, BDNF; experiment: Plasma immunological markers (ELISA) in the DM add-on methadone trial; type: in vivo, human; details: for plasma TNF-alpha concentration: FIG. 3
Experimental: • Human Cytokine Array I (Ray Biotech Inc., Norcross, Ga.) consisted of 23 different cytokine and chemokine antibodies spotted in duplicate onto a membrane (Dvorakova et al. 2004). The membranes were blocked with 10% bovine serum albumin in Tris-buffered saline according to the instructions of the manufacturer. One and a half milliliters of conditioned medium was added to each membrane in separate wells of a six-well plate. The membranes were shaken at 110 rpm at room temperature for an hour and a half. All washes were done in new six-well plates, according to the instructions of the manufacturer. Two milliliters of a 1:500 dilution of biotinconjugated antibodies was added to each membrane, and the mixture was incubated on a shaker for an hour and a half at room temperature. Following the wash, the membranes were incubated with a 1:40,000 dilution of strepavidin-conjugated peroxidase for 1 hour at room temperature, according to the instructions of the manufacturer. Following a thorough wash, the membranes were exposed to a peroxidase substrate (ChemGlow West; Alphalnnotech Corp., San Leandro, Calif.) for 5 min in the dark before imaging. Two or six individual membranes were placed side-by-side in a plastic protective folder and sealed. Imaging was done with a UVP AutoChemi imaging system within 30 min of exposure to the substrate. Exposure times ranged from 1 to 10 min. Chemiluminescence was quantified with LabWorks imaging and analysis software. Horseradish peroxidase (HRP)-conjugated antibody served as a positive substrate control at six spots and was also used to identify membrane orientation. For each spot the net density gray level was determined by subtracting the background gray levels from the total raw density gray levels. The relative fold difference in cytokine amount was determined in reference to the amount present on the control culture membrane based on the following: average treated culture cytokine spot gray levels/average control culture cytokine spot gray levels. 2. ELISA • Cytokine was quantified by using the Flexia antibody pair system (Bio-Source Intl., Camarillo, Calif.). Basically, the enzyme-linked immunosorbent assays (ELISAs) were optimized by using 96-well plates (MaxiSorp; Nalge Nunc International Corp., Naperville, Ill.) coated with 100 μl of strepavidin (Sigma, St. Louis, Mo.) at 5 μg/ml in water overnight at 37° C. or until all water was evaporated. All plates were stored desiccated at 4° C. until use. Biotinylated F(ab)2 coating antibody (5 μg/ml) was added to each well, and the plate was incubated at 37° C. for 2 hours. All wells were blocked and washed according to the instructions of the manufacturer. Standards or samples (100 μl) were added to the wells, and the plates were incubated at 37° C. for 1 hour. HRP-conjugated antibody (10 μg/ml) was added for an additional hour at 37° C. The plates were then washed thoroughly according to the instructions of the manufacturer. One hundred microliters of tetramethlybenzidine substrate (Roche, Indianapolis, Ind.) was added to each well, and the plates were held for 30 min in the dark. The reaction was stopped by the addition of 100 μl of 2 NH2SO4 to each well. The absorbance was read on an automated plate reader (Tecan U.S. Inc.) at 450 nm (reference wavelength, 650 nm). Values (in picograms per milliliter) were calculated from a standard curve. Samples were diluted up to 1:20, depending on the concentration.
The immunological parameters, C-reactive protein, TNF-α and interleukins was measured in the blood samples taken at Screen, week 1, week 4, week 8 and at the end of the study.

[2] = system: subjects with bipolar I or II disorder; experiment: Double-blind DM add-on to valproate, 12 weeks: YMRS, HDRS, CGI; type: in vivo, human; details: for YMRS score: DM 60 mg/day add-on to VPA
Excerpt: Totally 292 male and female subjects with bipolar I or II disorder, from the Department of Psychiatry at National Cheng Kung University Hospital and National Defense Medical Center were recruited. […] The Institutional Review Board for the Protection of Human Subjects approved the study protocol by both medical centers.
The add-on double-blind study treatment with DM/place was commenced at randomization for 12 weeks while patients continue open-label VPA. Subjects were randomized to either with 60 mg per day of DM or placebo at Baseline and proceeded to double-blind Add-On Treatment. The treatment response and side effect were measured to clarify the curative effect of DM add-on therapy to VPA in the treatment of bipolar disorders. […] Concomitant benzodiazepine medication (preferably up to 8 mg lorazepam) was used for daytime sedation, agitation or insomnia during the study. Risperidone 1-6 mg/daily and fluoxetine 20 mg/daily were permitted during manic or depressive stage, and anticholinergic drug was also used for the extrapyramidal syndrome (EPS).
The Chinese version of the modified SADS-L, a semi-structured interview aimed at formulating the main diagnoses based upon DSM-IV criteria with good inter-rater reliability. This modified version of SADS-L with its diagnoses was used as the gold standard. The severity of current symptoms was assessed by using the YMRS and HDRS. The diagnoses of a mood disorder were made according to DSM-IV criteria, except for bipolar II disorder, where the duration criterion for hypomania of 4 days was left out but 2-day cutoff for hypomania was used instead, because the 4 days minimum duration might not be based on data and the newly adopted cutoff had been supported by several previous reports. The side effect was measured using Clinical Global Impression (CGI) at each visit point.
(§1) All of the above, vital sign, and immunological markers were measured at baseline, 1, 2, 4, 8 and 12 weeks. For the 30 subjects of health control were also recruited for comparing the immune markers. The degree of benefit on symptoms after the week 4, 8 and end of treatment due to add-on DM treatment to VPA in comparison with placebo using a main measure of total psychopathology. The safety and tolerability and measure and assess the changes of immunology, and clinical features between the group with add-on DM treatment with placebo from Baseline to the end of study were compared.
For each scale, data were analyzed using last observation carried forward (LOCF) method, in which the last observation was entered for missing visits. To assess the efficacy in various clinical domains and take into account patient effects, mixed-effects models (Lange & Ryan 1989) were used (with intercept as the random effects) for all normally distributed outcomes, with main effects for treatment (DM or placebo), time (0, 1, 2, 4, 8, 12 weeks), and the treatment×time interaction. The analysis of the response rate was intent to treat. All hypothesis tests were 2-sided and were conducted at α=0.05. The post hoc of independent t test was then used to examine which time point the effect of add-on treatment started. P<0.05 was considered statistically significant for all two-sided tests. Statistical analyses were carried out using SPSS for windows (version 15.0).

[3] = system: plasma TNF-α, IL-1β, IL-8, CRP, BDNF; experiment: Plasma cytokine level (ELISA) in the DM add-on valproate trial; type: in vivo, human
Experimental: Blood routine, SGOT, SGPT, BUN and creatinine were measured only while the samples were taken at screen and at the end of the study. Plasma cytokine was quantified using the enzyme-linked immunosorbent assays (ELISAs). The Quantikine Human cytokine kit (R&D system), and Molecular Devices (SpectraMax-M2) ELISA reader were used to analyze the plasma cytokine level. The immunological parameters, BDNF, TNF-α, and interleukins were measured in the blood samples. The low limit sensitivity was 0.5 pg/ml, 0.125 pg/ml and 62.5 pg/ml for TNF-α, IL-1β and BDNF respectively. Finally, we used HPLC with UV detector to measure the plasma DM level.
as §1

[4] = system: rat primary mixed mesencephalic neuron-glia cultures; details: cited from earlier work
LPS and MPTP PD models = details: cited from earlier work
[5] = system: methadone-maintained male inpatients; details: DM at high doses (120, 240, 480 mg/day in increasing order); cited from earlier work
[6] = system: subjects with opioid dependence; experiment: Double-blind DM add-on to methadone maintenance therapy, 12 weeks: methadone dose and urine opioid
[7] = BP subjects, after 12 weeks depakine add-on dextromethorphan vs pretest, FIG. 11
[8] = normal controls vs BP subjects, before and after treatment (data not shown)

With `COc1ccc2c(c1)[C@]13CCCC[C@@H]1[C@H](C2)N(C)CC3` [DM, Dextromethorphan] the “plasma IL-6 concentration” value ([1]; between groups throughout 12-week treatment, FIG. 6) was “no significant differences”, the “plasma IL-8 concentration” value ([1]; between groups throughout 12-week treatment, FIG. 7) was “no significant differences” and the “plasma BDNF concentration” value ([1]; between groups throughout 12-week treatment, FIG. 8) was “no significant differences”. The “plasma TNF-alpha concentration” value ([1]; both high and low plasma DM groups vs placebo) was “Significantly lower plasma TNF-alpha concentration”, the “plasma IL-1beta concentration” value ([1]; both high and low plasma DM level groups vs placebo, FIG. 5) was “lower plasma IL-1beta concentration” and the “plasma TNF-alpha concentration” value ([1]; low plasma DM group compared with high plasma DM group) was “tendency of more decrease of plasma TNF-alpha concentration”. The “plasma CRP concentration” value ([1]; only in low plasma DM group, FIG. 4) was “lower plasma CRP concentration”, the “HDRS score, DM vs placebo” value ([2]; BP I) was “no differences” and the “YMRS score, DM vs placebo” value ([2]; BP I) was “no differences”. For the same molecule, the YMRS score ([2]; BP I, Baseline) was 8.08 ± 5.35, the YMRS score ([2]; BP I, Week 1) was 8.08 ± 5.35 and the YMRS score ([2]; BP I, Week 2) was 7.31 ± 5.00. The YMRS score ([2]; BP I, Week 4) was 5.86 ± 3.01, the YMRS score ([2]; BP I, Week 8) was 6.16 ± 3.61 and the YMRS score ([2]; BP I, Week 12) was 5.80 ± 4.04. The “CGI-therapeutic effect score, DM vs placebo” value ([2]; BP I, p=0.07, FIG. 10) was “borderline significance; also recorded: Borderline improvement”, the “effectiveness in hypomania stage” value ([2]; BP II patients, dextromethorphan add-on depakine, after 8 weeks of treatment) was “more effective” and the YMRS score ([2]; BP II, Baseline) was 5.77 ± 3.25. For the same molecule, the YMRS score ([2]; BP II, Week 1) was 5.60 ± 2.99, the YMRS score ([2]; BP II, Week 2) was 5.88 ± 3.13 and the YMRS score ([2]; BP II, Week 4) was 5.60 ± 2.90. For the same molecule, the YMRS score ([2]; BP II, Week 8 (p = 0.01 vs placebo)) was 4.40 ± 2.26, the YMRS score ([2]; BP II, Week 12 (p = 0.008 vs placebo)) was 4.26 ± 1.97 and the “YMRS score, DM vs placebo over time” value ([2]; BP II, F=5.68, p=0.02, FIG. 9) was “significant difference of YMRS score”. For the same molecule, the “plasma IL-1β” value ([3]; BP patients, after the add-on DM treatment) was “decrease”, the “plasma IL-8 level” value [3, 7] was “significant decreasing” and the “plasma TNF-α level” value [3, 7] was “significant decreasing”. For the same molecule, the “plasma BDNF” value [3, 8] was “no difference”, the “plasma CRP” value [3, 8] was “no difference” and the neuroprotection with post-treatment ([4]; DM added up to 60 minutes after the addition of LPS) was “Significant neuroprotection”. For the same molecule, the “number of dopamine neurons and dendrite morphology” value ([4]; pretreated with DM (10 μM) before LPS stimulation) was “significantly more numerous and the dendrites less affected”, the “concentration protecting dopamine neurons against LPS-induced reduction of dopamine uptake” value ([4]; rat primary mixed mesencephalic neuron-glia cultures) was 1 to 10 µM and the “protective effect in animal PD models” value (LPS and MPTP PD models) was “potent protective effect”. The “effects on heart rate, blood pressure, temperature and plasma bromide” value [5] was “mild elevations”, the percentage morphine-positive urine ([6]; both high (>30 ng/ml) and low (<=30 ng/ml) plasma DM level groups vs placebo, FIG. 2) was “lower percentage morphine-positive urine” and the methadone dosage change ([6]; low plasma DM level group (<=30 ng/ml) vs high plasma DM group and placebo, 12 weeks add-on to methadone, FIG. 1) was “highest tendency of decrease of methadone use”.
